{"source": "patent US20050113334A1", "about": "“COMPOSITION AND METHOD” (priority 2003, published 2005)", "tested_on": "Desulfovibrio spp.", "assay": "In vitro fermentation of fibers with canine fecal inoculum, FISH enumeration", "type": "cell-based", "settings": "39° C.; for Numbers of Desulfovibrio spp., LOG10 CFU AT 8 HOUR: after 8 hour incubation", "protocol": "Fermentation vessels containing anaerobic phosphate buffered medium were prepared and 1 ml canine fecal inoculum (10% w/v fecal sample to buffer) added. The composition of the media was as described in Sunvold G D, Hussein H S, Fahey G C, Merchen N R, and Reinhart G A (1995), In vitro fermentation of selected fiber sources by dogs fecal inoculum and in vivo digestion and metabolism of fiber supplemental diets. J. Animal Sci. 73:1099-1109 (1995). Fermentations were carried out at 39° C. Experiments were conducted in a blind-coded manner with different fibers. […] An aliquot of this was prepared for FISH. […] Genus specific 16SrRNA-targeted probes were synthesized and monolabelled at the 5″ end with fluorescent dye to detect bacteria of interest in the fermentation media. Total nucleic acid was stained to obtain total microbial counts."}
{"substance": "Galacto-oligosaccharide", "values": [{"measurement": "Numbers of Desulfovibrio spp., Log10 CFU AT 0 HOUR", "value": "7.0 ± 1.0 log cfu/ml of fecal inoculum"}, {"measurement": "Numbers of Desulfovibrio spp., LOG10 CFU AT 8 HOUR", "value": "6.8 ± 0.9 log cfu/ml of fecal inoculum"}]}
{"substance": "Xylooligosaccharide", "values": [{"measurement": "Numbers of Desulfovibrio spp., Log10 CFU AT 0 HOUR", "value": "7.2 ± 0.4 log cfu/ml of fecal inoculum"}, {"measurement": "Numbers of Desulfovibrio spp., LOG10 CFU AT 8 HOUR", "value": "6.8 ± 0.9 log cfu/ml of fecal inoculum"}]}
{"substance": "Inulin", "values": [{"measurement": "Numbers of Desulfovibrio spp., Log10 CFU AT 0 HOUR", "value": "7.3 ± 0.2 log cfu/ml of fecal inoculum"}, {"measurement": "Numbers of Desulfovibrio spp., LOG10 CFU AT 8 HOUR", "value": "6.4 ± 1.0 log cfu/ml of fecal inoculum"}]}
{"substance": "Fructooligosaccharide", "values": [{"measurement": "Numbers of Desulfovibrio spp., Log10 CFU AT 0 HOUR", "value": "6.9 ± 1.0 log cfu/ml of fecal inoculum"}, {"measurement": "Numbers of Desulfovibrio spp., LOG10 CFU AT 8 HOUR", "value": "6.3 ± 0.8 log cfu/ml of fecal inoculum"}]}
{"substance": "Arabinogalactan", "values": [{"measurement": "Numbers of Desulfovibrio spp., Log10 CFU AT 0 HOUR", "value": "7.5 ± 0.3 log cfu/ml of fecal inoculum"}, {"measurement": "Numbers of Desulfovibrio spp., LOG10 CFU AT 8 HOUR", "value": "6.4 ± 1.0 log cfu/ml of fecal inoculum"}]}
